Laboratory results published in patent US20230081426A1, “COMPOUNDS AND METHODS FOR KRAS MODULATION AND INDICATIONS THEREFOR” (Plexxikon Inc., priority 2020, published 2023).

How the values were obtained:
[1] = target: T1, G12V-mutant human KRAS (amino acid residues 1-188) (Homo sapiens, UniProt P01116, G12V); experiment: KRAS Binding Competition Assay (AlphaScreen; biotinylated KRpep-2d analogue), G12V; details: geometric mean, read-out: KRAS GMean IC50 (uM) MUTATION: G12V
T1 construct: G12V-mutant human KRAS (amino acid residues 1-188) with FLAG tag was purified from E. coli; made in house; host or cells: E. coli

[2] = target: T2, G12D-mutant human KRAS (amino acid residues 1-188) (Homo sapiens, UniProt P01116, G12D); experiment: KRAS Binding Disruption Assay (AlphaScreen; biotinylated KRpep-2d analogue or RAF1-RBD), G12D; details: KRAS G12D; geometric mean; read-out: KRAS GMean IC50 (uM) MUTATION: G12D
T2 construct: G12D or G12C-mutant human KRAS (amino acid residues 1-188) with FLAG tag; made in house; host or cells: E. coli
Method in brief: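 Compounds are titrated against 5-20 nM mutant KRAS and 5-20 nM of either a biotinylated KRpep-2d analogue or RAF1-RBD, incubated 1 h at 25° C. Disruption is detected as reduced Alpha signal after 1 h with donor and acceptor beads at 10 μg/mL.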

SMILES | IC50 [1] | IC50 [2]
Cc1cccc2c1N(c1ncc3c(N4C[C@H]5CC[C@@H](C4)N5)nc(OC[C@@H]4CCCN4C)nc3c1F)CC(O)C2 (stereo partly drawn) [P-0436, 1-(4-((1R,5S)-3,8-diazabicyclo[3.2.1]octan-3-yl)-8-fluoro-2-(((S)-1-methylpyrrolidin-2-yl)methoxy)pyrido[4,3-d]pyrimidin-7-yl)-8-methyl-1,2,3,4-tetrahydroquinolin-3-ol] | 100 to 1000 µM | 0.0001 to 10 µM
Cc1cccc2c(Nc3ccc4c(N5C[C@H]6CC[C@@H](C5)N6)nc(OC[C@@H]5CCCN5C)nc4c3F)n[nH]c12 [P-0437, 4-((1R,5S)-3,8-diazabicyclo[3.2.1]octan-3-yl)-8-fluoro-N-(7-methyl-1H-indazol-3-yl)-2-(((S)-1-methylpyrrolidin-2-yl)methoxy)quinazolin-7-amine] | 100 to 1000 µM | 10 to 100 µM
CN1CCC[C@H]1COc1nc(N2C[C@H]3CC[C@@H](C2)N3)c2ccc(Nc3n[nH]c4c(F)cccc34)c(F)c2n1 [P-0438, 4-((1R,5S)-3,8-diazabicyclo[3.2.1]octan-3-yl)-8-fluoro-N-(7-fluoro-1H-indazol-3-yl)-2-(((S)-1-methylpyrrolidin-2-yl)methoxy)quinazolin-7-amine] | 10 to 100 µM | 10 to 100 µM
Oc1cc(-c2ccc3c(N4C[C@H]5CC[C@@H](C4)N5)nc(CCN4CCCC4)nc3c2F)c2ccccc2c1 [P-0439, 4-(4-((1R,5S)-3,8-diazabicyclo[3.2.1]octan-3-yl)-8-fluoro-2-(2-(pyrrolidin-1-yl)ethyl)quinazolin-7-yl)naphthalen-2-ol] | 10 to 100 µM | 0.0001 to 10 µM
C[C@H]1CCCN1CCc1nc(N2C[C@H]3CC[C@@H](C2)N3)c2ccc(-c3cc(O)cc4ccccc34)c(F)c2n1 [P-0440, 4-(4-((1R,5S)-3,8-diazabicyclo[3.2.1]octan-3-yl)-8-fluoro-2-(2-((S)-2-methylpyrrolidin-1-yl)ethyl)quinazolin-7-yl)naphthalen-2-ol] | 10 to 100 µM | 0.0001 to 10 µM
Fc1cc2c(N3C[C@H]4CC[C@@H](C3)N4)nc(OCC34CCCN3CCC4)nc2c(F)c1-c1c[nH]c2ccc(Cl)c(F)c12 [P-0441, 4-((1R,5S)-3,8-diazabicyclo[3.2.1]octan-3-yl)-7-(5-chloro-4-fluoro-1H-indol-3-yl)-6,8-difluoro-2-((tetrahydro-1H-pyrrolizin-7a(5H)-yl)methoxy)quinazoline] | 0.0001 to 10 µM | 0.0001 to 10 µM
Cc1cccc2cccc(-c3ccc4c(N5C[C@H]6CC[C@@H](C5)N6C(=O)CC#N)nc(OCC56CCCN5CCC6)nc4c3F)c12 [P-0442, 3-((1R,5S)-3-(8-fluoro-7-(8-methylnaphthalen-1-yl)-2-((tetrahydro-1H-pyrrolizin-7a(5H)-yl)methoxy)quinazolin-4-yl)-3,8-diazabicyclo[3.2.1]octan-8-yl)-3-oxopropanenitrile] | 0.0001 to 10 µM | 10 to 100 µM
CN1CCC[C@H]1COc1nc(N2C[C@H]3CC[C@@H](C2)N3)c2cnc(N3CC(=O)Nc4cccc(Cl)c43)c(F)c2n1 [P-0444, 4-(4-((1R,5S)-3,8-diazabicyclo[3.2.1]octan-3-yl)-8-fluoro-2-(((S)-1-methylpyrrolidin-2-yl)methoxy)pyrido[4,3-d]pyrimidin-7-yl)-5-chloro-3,4-dihydroquinoxalin-2(1H)-one] | 100 to 1000 µM | 10 to 100 µM
CN(C)Cc1nc(N2C[C@H]3CC[C@@H](C2)N3)c2cc(Cl)c(-c3c(O)cccc3F)c(F)c2n1 [P-0445, 2-(4-((1R,5S)-3,8-diazabicyclo[3.2.1]octan-3-yl)-6-chloro-2-((dimethylamino)methyl)-8-fluoroquinazolin-7-yl)-3-fluorophenol] | 10 to 100 µM | 10 to 100 µM
O=C1c2ccccc2C(=O)N1Cc1nc(N2C[C@H]3CC[C@@H](C2)N3)c2cc(Cl)c(-c3c(O)cccc3F)c(F)c2n1 [P-0446, 2-((4-((1R,5S)-3,8-diazabicyclo[3.2.1]octan-3-yl)-6-chloro-8-fluoro-7-(2-fluoro-6-hydroxyphenyl)quinazolin-2-yl)methyl)isoindoline-1,3-dione] | 10 to 100 µM | 10 to 100 µM
CN1CCC[C@H]1COc1nc(N2C[C@H]3CC[C@@H](C2)N3C(=O)CC2SC(=O)NC2=O)c2cc(Cl)c(-c3cc(O)cc4ccccc34)c(F)c2n1 (stereo partly drawn) [P-0447, 5-(2-((1R,5S)-3-(6-chloro-8-fluoro-7-(3-hydroxynaphthalen-1-yl)-2-(((S)-1-methylpyrrolidin-2-yl)methoxy)quinazolin-4-yl)-3,8-diazabicyclo[3.2.1]octan-8-yl)-2-oxoethyl)thiazolidine-2,4-dione] | 0.0001 to 10 µM | 0.0001 to 10 µM
Fc1cc2c(N3C[C@H]4CC[C@@H](C3)N4)nc(OCC34CCCN3CCC4)nc2c(F)c1-c1c[nH]c2cccc(F)c12 [P-0448, 4-((1R,5S)-3,8-diazabicyclo[3.2.1]octan-3-yl)-6,8-difluoro-7-(4-fluoro-1H-indol-3-yl)-2-((tetrahydro-1H-pyrrolizin-7a(5H)-yl)methoxy)quinazoline] | 10 to 100 µM | 0.0001 to 10 µM
CC(C(=O)N1[C@@H]2CC[C@H]1CN(c1nc(OCC34CCCN3CCC4)nc3c(F)c(-c4cc(O)cc5ccccc45)ccc13)C2)S(N)(=O)=O (stereo partly drawn) [P-0449, 1-((1R,5S)-3-(8-fluoro-7-(3-hydroxynaphthalen-1-yl)-2-((tetrahydro-1H-pyrrolizin-7a(5H)-yl)methoxy)quinazolin-4-yl)-3,8-diazabicyclo[3.2.1]octan-8-yl)-1-oxopropane-2-sulfonamide] | 0.0001 to 10 µM | 0.0001 to 10 µM
COC(=N)CC(=O)N1[C@@H]2CC[C@H]1CN(c1nc(OC[C@@H]3CCCN3C)nc3c(F)c(-c4cc(O)cc5ccccc45)c(Cl)cc13)C2 [P-0450, methyl 3-((1R,5S)-3-(6-chloro-8-fluoro-7-(3-hydroxynaphthalen-1-yl)-2-(((S)-1-methylpyrrolidin-2-yl)methoxy)quinazolin-4-yl)-3,8-diazabicyclo[3.2.1]octan-8-yl)-3-oxopropanimidate] | 10 to 100 µM | 10 to 100 µM
CN1CCC[C@H]1COc1nc(N2C[C@H]3CC[C@@H](C2)N3C(=O)CC(N)=O)c2cc(Cl)c(-c3cc(O)cc4ccccc34)c(F)c2n1 [P-0451, 3-((1R,5S)-3-(6-chloro-8-fluoro-7-(3-hydroxynaphthalen-1-yl)-2-(((S)-1-methylpyrrolidin-2-yl)methoxy)quinazolin-4-yl)-3,8-diazabicyclo[3.2.1]octan-8-yl)-3-oxopropanamide] | 10 to 100 µM | 0.0001 to 10 µM
NS(=O)(=O)C1(C(=O)N2[C@@H]3CC[C@H]2CN(c2nc(OCC45CCCN4CCC5)nc4c(F)c(-c5cc(O)cc6ccccc56)ccc24)C3)CC1 [P-0452, 1-((1R,5S)-3-(8-fluoro-7-(3-hydroxynaphthalen-1-yl)-2-((tetrahydro-1H-pyrrolizin-7a(5H)-yl)methoxy)quinazolin-4-yl)-3,8-diazabicyclo[3.2.1]octane-8-carbonyl)cyclopropane-1-sulfonamide] | 0.0001 to 10 µM | 0.0001 to 10 µM
Cc1cccc2c1N(c1ncc3c(N4C[C@H]5CC[C@@H](C4)N5)nc(OCC45CCCN4CCC5)nc3c1F)CC(O)C2 (stereo partly drawn) [P-0453, 1-(4-((1R,5S)-3,8-diazabicyclo[3.2.1]octan-3-yl)-8-fluoro-2-((tetrahydro-1H-pyrrolizin-7a(5H)-yl)methoxy)pyrido[4,3-d]pyrimidin-7-yl)-8-methyl-1,2,3,4-tetrahydroquinolin-3-ol] | 100 to 1000 µM | 0.0001 to 10 µM
Cc1cccc2c1N(c1ccc3c(N4C[C@H]5CC[C@@H](C4)N5)nc(OCC45CCCN4CCC5)nc3c1F)CC(O)C2 (stereo partly drawn) [P-0454, 1-(4-((1R,5S)-3,8-diazabicyclo[3.2.1]octan-3-yl)-8-fluoro-2-((tetrahydro-1H-pyrrolizin-7a(5H)-yl)methoxy)quinazolin-7-yl)-8-methyl-1,2,3,4-tetrahydroquinolin-3-ol] | 100 to 1000 µM | 0.0001 to 10 µM
CCCc1nc(N2C[C@H]3CC[C@@H](C2)N3)c2ccc(-c3cc(O)cc4ccccc34)c(F)c2n1 [P-0455, 4-(4-((1R,5S)-3,8-diazabicyclo[3.2.1]octan-3-yl)-8-fluoro-2-propylquinazolin-7-yl)naphthalen-2-ol] | 10 to 100 µM | 0.0001 to 10 µM
OCc1nc(N2C[C@H]3CC[C@@H](C2)N3)c2cc(Cl)c(-c3c(O)cccc3F)c(F)c2n1 [P-0456, 2-(4-((1R,5S)-3,8-diazabicyclo[3.2.1]octan-3-yl)-6-chloro-8-fluoro-2-(hydroxymethyl)quinazolin-7-yl)-3-fluorophenol] | 10 to 100 µM | 10 to 100 µM
Cc1cccc2c(Nc3c(F)cc4c(N5C[C@H]6CC[C@@H](C5)N6)nc(OC[C@@H]5CCCN5C)nc4c3F)n[nH]c12 [P-0457, 4-((1R,5S)-3,8-diazabicyclo[3.2.1]octan-3-yl)-6,8-difluoro-N-(7-methyl-1H-indazol-3-yl)-2-(((S)-1-methylpyrrolidin-2-yl)methoxy)quinazolin-7-amine] | 10 to 100 µM | 10 to 100 µM
CN1CCC[C@H]1COc1nc(N2C[C@H]3CC[C@@H](C2)N3)c2ccc(-n3nc(O)c4cccc(F)c43)c(F)c2n1 [P-0458, 1-(4-((1R,5S)-3,8-diazabicyclo[3.2.1]octan-3-yl)-8-fluoro-2-(((S)-1-methylpyrrolidin-2-yl)methoxy)quinazolin-7-yl)-7-fluoro-1H-indazol-3-ol] | 100 to 1000 µM | 10 to 100 µM
OCC(O)c1nc(N2C[C@H]3CC[C@@H](C2)N3)c2ccc(-c3cc(O)cc4ccccc34)c(F)c2n1 (stereo partly drawn) [P-0459, 1-(4-((1R,5S)-3,8-diazabicyclo[3.2.1]octan-3-yl)-8-fluoro-7-(3-hydroxynaphthalen-1-yl)quinazolin-2-yl)ethane-1,2-diol] | 0.0001 to 10 µM | 0.0001 to 10 µM
